Data as given in patent US8609836B2, “4-aryl-2-anilino-pyrimidines” (Janssen Pharmaceutica NV, priority 2008, dated 2013).
pIC50: −log10 of the molar value.

Tests used:
PLK4 (h) = PLK4 (h) (Homo sapiens, UniProt O00444); assay: PLK-4 human kinase inhibition, scintillation proximity assay (SPA); type: biochemical; conditions: read-out: PLK4 pIC50 (converted)
Method: (§1) In the SPA technology the activity of the kinase of interest is measured using an appropriate biotinylated substrate that is incubated with the aforementioned kinase protein in the presence of (^33P) radiolabeled ATP. (^33P) Phosphorylation of the substrate is subsequently measured through binding of the phosphorylated substrate to streptavidine coated beads that are based on the scintillant poly(vinyl toluene) (PVT-Beads). The scintillation intensity is detected by imaging on Leadseeker.
(§2) All kinases are pre-diluted to a 10× working concentration prior to addition into the assay. The composition of the dilution buffer for each kinase is detailed below.
(6.0 μCi/ml). After incubation of 60 minutes at room temperature, the reaction is stopped by addition of 40 μL of stop solution containing 8.7 mM EDTA, BSA 0.17%, 0.17% Triton X-100, 1.7 mg/ml SPA beads (GE-healthcare). The plate is centrifuged and read for Scintillation imaging on Leadseeker.

AuroraB (h) = AuroraB (h) (Homo sapiens, UniProt Q96GD4); assay: Aurora-B human kinase inhibition, SPA; type: biochemical; conditions: read-out: AuroraB pIC50 (converted)
AuroraB (h), sequence (Q96GD4 whole entry): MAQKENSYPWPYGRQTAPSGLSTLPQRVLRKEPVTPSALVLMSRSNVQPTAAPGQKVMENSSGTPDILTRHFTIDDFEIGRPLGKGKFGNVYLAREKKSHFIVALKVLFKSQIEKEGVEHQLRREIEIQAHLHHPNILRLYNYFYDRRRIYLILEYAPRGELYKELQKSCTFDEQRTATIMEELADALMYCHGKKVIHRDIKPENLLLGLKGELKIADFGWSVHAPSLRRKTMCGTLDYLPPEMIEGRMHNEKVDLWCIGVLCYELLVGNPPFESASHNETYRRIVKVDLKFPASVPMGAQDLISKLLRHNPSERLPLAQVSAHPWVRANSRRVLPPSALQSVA
Method: (§3) The in vitro inhibition of a panel of kinases was assessed using either the scintillation proximity assay (SPA) as described by Cook, N. D. et al., Advances in Experimental Medicine and Biology (1991), 36; p. 525-528.
as §1, §2
In a final reaction volume of 30 μl, AuroraB (h) (0.5 μg/ml) is incubated with 60 mM Hepes pH 7.5, 3 mM MgCl2, 3 mM MnCl2, 3 μM Na3VO4, 0.05 mg/ml PEG, 2 mM DTT, 3 μM Biotin-[…]-OH, 0.5 μM ATP and 2.2 nM [γ-^33P-ATP] (6.8 μCi/ml). After incubation of 60 minutes at room temperature, the reaction is stopped by addition of 40 μL of stop solution containing 8.7 mM EDTA, BSA 0.17%, 0.17% Triton X-100, 5 mg/ml SPA beads (GE-healthcare). The plate is centrifuged and read for Scintillation imaging on Leadseeker.

GSK3β (h) = GSK3β (h) (Homo sapiens, UniProt P49841); assay: GSK-3β human kinase inhibition, SPA; type: biochemical; conditions: read-out: GSK3b pIC50 (converted)
GSK3β (h), sequence (P49841 whole entry): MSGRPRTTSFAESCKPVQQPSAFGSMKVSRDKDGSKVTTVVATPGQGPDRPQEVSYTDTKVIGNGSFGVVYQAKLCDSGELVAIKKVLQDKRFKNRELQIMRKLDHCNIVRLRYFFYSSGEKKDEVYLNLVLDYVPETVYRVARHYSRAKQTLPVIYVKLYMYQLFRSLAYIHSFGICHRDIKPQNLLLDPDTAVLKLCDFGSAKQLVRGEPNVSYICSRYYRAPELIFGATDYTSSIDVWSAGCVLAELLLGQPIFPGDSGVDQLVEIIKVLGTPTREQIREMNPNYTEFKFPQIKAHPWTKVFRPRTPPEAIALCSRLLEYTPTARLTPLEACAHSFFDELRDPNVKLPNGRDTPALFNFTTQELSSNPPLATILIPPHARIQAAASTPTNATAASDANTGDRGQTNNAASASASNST
Method: as §3, §1, §2
In a final reaction volume of 30 μl, GSK3β (h) (1 μg/ml) is incubated with 25 mM Tris pH 7.4, 10 mM MgCl2, 1 mM DTT, 1 μM peptide Biotin-[…]-OH, 1 μM ATP and 2 nM [γ-^33P-ATP] (6.0 μCi/ml). After incubation of 60 minutes at room temperature, the reaction is stopped by addition of 40 μL of stop solution containing 8.7 mM EDTA, BSA 0.17%, 0.17% Triton X-100, 6.25 mg/ml SPA beads (GE-healthcare). The plate is centrifuged and read for Scintillation imaging on Leadseeker.

CDK1/CyclinB (h) = CDK1/CyclinB (h) (Homo sapiens, UniProt P06493); assay: CDK1/CyclinB human kinase inhibition, Invitrogen's FRET assay (Z'lyte); type: biochemical; conditions: read-out: CDK1 pIC50 (converted)
CDK1/CyclinB (h), sequence (P06493 whole entry): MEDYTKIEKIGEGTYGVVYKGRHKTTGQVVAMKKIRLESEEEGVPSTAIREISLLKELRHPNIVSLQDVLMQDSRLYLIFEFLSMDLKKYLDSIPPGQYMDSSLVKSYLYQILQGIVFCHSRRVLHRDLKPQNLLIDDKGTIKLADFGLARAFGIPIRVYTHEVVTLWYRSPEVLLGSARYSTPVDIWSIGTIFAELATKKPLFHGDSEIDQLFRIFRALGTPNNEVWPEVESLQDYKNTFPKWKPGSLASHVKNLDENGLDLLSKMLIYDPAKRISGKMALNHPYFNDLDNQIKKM
CDK1/CyclinB (h), sequence (P14635 whole entry partner): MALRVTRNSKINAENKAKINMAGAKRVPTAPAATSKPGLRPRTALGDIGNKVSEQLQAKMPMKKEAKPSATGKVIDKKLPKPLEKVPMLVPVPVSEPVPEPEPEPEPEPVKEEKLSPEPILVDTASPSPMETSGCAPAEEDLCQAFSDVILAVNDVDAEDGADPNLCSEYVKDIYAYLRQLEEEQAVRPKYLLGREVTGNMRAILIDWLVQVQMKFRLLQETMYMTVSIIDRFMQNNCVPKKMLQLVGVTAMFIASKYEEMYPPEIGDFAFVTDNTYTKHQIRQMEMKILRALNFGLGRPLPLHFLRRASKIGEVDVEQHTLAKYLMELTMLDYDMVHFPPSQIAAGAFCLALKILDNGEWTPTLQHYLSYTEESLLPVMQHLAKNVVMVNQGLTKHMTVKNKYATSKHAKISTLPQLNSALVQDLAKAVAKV
Method: as §3, §2
In a final reaction volume of 10 μl, CDK1/CyclinB (h) (0.2 μg/ml) is incubated with 50 mM Hepes pH 7.5, 10 mM MgCl2, 1 mM EGTA, 0.01% Brij-35, 2 μM Z'lyte Ser/Thr peptide 12 and 10 μM ATP (Invitrogen's FRET assay). After incubation of 60 minutes at room temperature, the reaction is stopped by addition of 5 μL development reagent containing protease mix. After 60 minutes room temperature the development reaction is stopped by adding 5 μl stop solution. The plate is then read in fluorescence plate reader with excitation: 390 nm and dual emission: 460 and 538 nm. Emission ratio is determined to the formula=Emission signal intensity at 460 nm/Emission signal intensity at 538 nm.

CDK4/CyclinD1 (h) = CDK4/CyclinD1 (h) (Homo sapiens, UniProt P11802); assay: CDK4/CyclinD1 human kinase inhibition, SPA with GST-pRb substrate; type: biochemical; conditions: read-out: CDK4 pIC50 (converted)
CDK4/CyclinD1 (h), sequence (P11802 whole entry): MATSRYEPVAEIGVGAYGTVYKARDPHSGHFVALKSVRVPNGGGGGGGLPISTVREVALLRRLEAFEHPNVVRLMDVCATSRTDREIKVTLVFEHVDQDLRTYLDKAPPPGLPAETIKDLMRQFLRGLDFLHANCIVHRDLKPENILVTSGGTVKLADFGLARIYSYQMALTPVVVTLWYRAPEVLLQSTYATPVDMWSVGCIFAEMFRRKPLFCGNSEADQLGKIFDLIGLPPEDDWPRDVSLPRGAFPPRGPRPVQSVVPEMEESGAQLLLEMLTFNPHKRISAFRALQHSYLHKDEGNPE
CDK4/CyclinD1 (h), sequence (P24385 whole entry partner): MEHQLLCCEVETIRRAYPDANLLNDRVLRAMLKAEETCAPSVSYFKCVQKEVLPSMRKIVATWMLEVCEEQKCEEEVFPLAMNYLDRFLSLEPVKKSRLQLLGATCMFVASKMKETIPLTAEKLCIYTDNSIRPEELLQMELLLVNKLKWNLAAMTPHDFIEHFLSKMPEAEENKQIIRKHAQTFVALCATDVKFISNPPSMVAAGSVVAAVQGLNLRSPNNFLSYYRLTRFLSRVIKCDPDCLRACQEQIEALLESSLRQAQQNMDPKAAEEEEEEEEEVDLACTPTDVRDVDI
Method: as §3, §1, §2
In a final reaction volume of 30 μl, CDK4/CyclinD1 (h) (2.5 μg/ml) is incubated with 50 mM Hepes pH 7.5, 8 mM NaF, 20 mM MgCl2, 1 mM DTT, 40 μg/ml of substrate GST-pRb, 2 nM [γ-^33P-ATP] (6.0 μCi/ml). After incubation of 60 minutes at room temperature, the reaction is stopped by addition of 40 μL of stop solution containing 8.7 mM EDTA, 0.17% Triton X-100, 25 mg/ml Glutathion SPA Beads (GE-healthcare). The plate is centrifuged and read for Scintillation topcount analyzer.

PLK1 T210D (h) = PLK1 T210D (h) (Homo sapiens, UniProt P53350, T210D); assay: PLK1 human kinase inhibition, SPA; type: biochemical; conditions: read-out: PLK1 pIC50 (converted)
PLK1 T210D (h), sequence (P53350 whole entry T210D): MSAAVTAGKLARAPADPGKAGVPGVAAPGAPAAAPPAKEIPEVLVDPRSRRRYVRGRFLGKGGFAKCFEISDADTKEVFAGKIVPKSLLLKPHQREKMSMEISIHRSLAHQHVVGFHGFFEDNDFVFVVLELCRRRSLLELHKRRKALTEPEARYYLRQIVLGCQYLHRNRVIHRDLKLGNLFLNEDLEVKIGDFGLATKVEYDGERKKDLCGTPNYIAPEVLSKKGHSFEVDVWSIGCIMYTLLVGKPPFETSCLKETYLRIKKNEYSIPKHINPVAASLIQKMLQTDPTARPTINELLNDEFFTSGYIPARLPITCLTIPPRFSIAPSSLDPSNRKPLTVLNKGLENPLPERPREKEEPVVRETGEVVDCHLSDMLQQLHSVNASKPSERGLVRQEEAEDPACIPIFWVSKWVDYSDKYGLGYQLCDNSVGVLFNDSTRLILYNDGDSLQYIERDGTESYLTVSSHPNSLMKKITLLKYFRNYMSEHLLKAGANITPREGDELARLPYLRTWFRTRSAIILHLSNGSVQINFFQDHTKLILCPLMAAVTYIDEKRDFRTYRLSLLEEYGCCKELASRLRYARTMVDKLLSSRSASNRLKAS
Method: as §3, §1, §2
In a final reaction volume of 30 μl, PLK1 T210D (h) (0.125 ng/ml) is incubated with 50 mM Hepes pH 8.0, 2 mM MnCl2, 1 mM DTT, 2 μM of peptide Biotin-Tds linker-[…], 0.1 μM ATP and 2 nM [γ-^33P-ATP] (6.0 μCi/ml). After incubation of 40 minutes at room temperature, the reaction is stopped by addition of 40 μL of stop solution containing 8.7 mM EDTA, BSA 0.17%, 0.17% Triton X-100, 25 mg/ml SPA beads (GE-healthcare). The plate is centrifuged and read for Scintillation imaging on Leadseeker.

PLK2 (h) = PLK2 (h) (Homo sapiens, UniProt Q9NYY3); assay: PLK2 human kinase inhibition, SPA; type: biochemical; conditions: read-out: PLK2 pIC50 (converted)
PLK2 (h), sequence (Q9NYY3 whole entry): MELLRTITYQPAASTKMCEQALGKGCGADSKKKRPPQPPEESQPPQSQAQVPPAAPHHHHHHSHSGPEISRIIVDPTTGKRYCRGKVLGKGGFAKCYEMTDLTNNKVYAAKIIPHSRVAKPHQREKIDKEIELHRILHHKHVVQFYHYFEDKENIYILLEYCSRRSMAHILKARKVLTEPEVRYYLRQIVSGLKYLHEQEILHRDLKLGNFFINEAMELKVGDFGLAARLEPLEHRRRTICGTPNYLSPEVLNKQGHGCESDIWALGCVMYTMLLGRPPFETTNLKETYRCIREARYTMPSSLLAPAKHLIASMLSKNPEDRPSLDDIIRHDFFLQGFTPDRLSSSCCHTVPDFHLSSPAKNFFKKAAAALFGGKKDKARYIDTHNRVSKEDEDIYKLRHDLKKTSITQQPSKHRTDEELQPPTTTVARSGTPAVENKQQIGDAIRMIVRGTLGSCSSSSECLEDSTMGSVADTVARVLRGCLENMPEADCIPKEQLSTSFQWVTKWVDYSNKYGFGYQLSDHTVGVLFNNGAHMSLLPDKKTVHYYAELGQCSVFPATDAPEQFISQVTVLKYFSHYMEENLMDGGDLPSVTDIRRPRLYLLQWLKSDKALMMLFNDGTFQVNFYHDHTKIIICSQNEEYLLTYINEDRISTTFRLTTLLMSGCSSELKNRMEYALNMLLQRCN
Method: as §3, §1, §2
(§4) In a final reaction volume of 30 μl, PLK2 (h) (30 μg/ml) is incubated with 50 mM Hepes pH 8.0, 2 mM MnCl2, 1 mM DTT, 2 μM of peptide Biotin-Tds linker-[…], 0.1 μM ATP and 2 nM [γ-^33P-ATP] (6.0 μCi/ml). After incubation of 20 minutes at room temperature, the reaction is stopped by addition of 40 μL of stop solution containing 8.7 mM EDTA, BSA 0.17%, 0.17% Triton X-100, 25 mg/ml SPA beads (GE-healthcare). The plate is centrifuged and read for Scintillation imaging on Leadseeker.

PLK3 (h) = PLK3 (h) (Homo sapiens, UniProt Q9H4B4); assay: PLK3 human kinase inhibition, SPA; type: biochemical; conditions: read-out: PLK3 pIC50 (converted)
PLK3 (h), sequence (Q9H4B4 whole entry): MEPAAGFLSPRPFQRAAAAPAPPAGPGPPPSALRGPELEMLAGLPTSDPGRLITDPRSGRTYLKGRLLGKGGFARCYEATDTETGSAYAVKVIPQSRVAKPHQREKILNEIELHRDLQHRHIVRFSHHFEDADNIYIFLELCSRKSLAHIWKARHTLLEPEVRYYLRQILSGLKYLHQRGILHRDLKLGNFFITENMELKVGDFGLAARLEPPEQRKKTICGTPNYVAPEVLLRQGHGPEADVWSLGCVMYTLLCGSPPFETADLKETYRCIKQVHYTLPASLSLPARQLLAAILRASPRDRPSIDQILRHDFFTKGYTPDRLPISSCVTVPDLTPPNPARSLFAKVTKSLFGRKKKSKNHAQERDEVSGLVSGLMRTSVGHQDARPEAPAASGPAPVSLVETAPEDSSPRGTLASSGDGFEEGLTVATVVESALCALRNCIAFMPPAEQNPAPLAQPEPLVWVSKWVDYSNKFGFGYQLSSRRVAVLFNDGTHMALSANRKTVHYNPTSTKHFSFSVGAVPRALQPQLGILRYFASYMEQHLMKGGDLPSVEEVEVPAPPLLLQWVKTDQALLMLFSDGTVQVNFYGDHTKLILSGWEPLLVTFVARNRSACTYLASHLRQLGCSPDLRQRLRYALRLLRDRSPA
Method: as §3, §1, §2
as §4, with “PLK3” for “PLK2”

HCT-116 = assay: Cellular proliferation assay (Alamar blue), HCT-116; type: cell-based; conditions: Homo sapiens, 10% FCS, 72 hours with compound, Alamar blue 4 h
Method: (§5) […] functional properties of these compounds were tested in cellular proliferation assays on a panel of different cell lines in the presence of 10% FCS serum (37° C. and 5% (v/v) CO2). In a first step these cells were seeded and incubated for 24 hours in the absence of compound. In the second step the cells were incubated for 72 hours with the compounds to be tested for 72 hours. The viable cell number was finally assessed in a standard Alamar blue cell viability assay.
(§6) The viable cell number was assessed by incubation for either 4 h (HCT-116, H1299) 6 h (U87-MG) or 24 h (A2780, MDA-MB-231) with Alamar blue (Resazurin 9 μg/ml, K-Ferrocyanide 90 μM, K-Ferricyanide 90 μM) and the converted fluorescent product was quantified on a fluorescent plate reader (544 nm/590 nm). Effect of the compounds is calculated as of on control cells.

U87-MG = assay: Cellular proliferation assay (Alamar blue), U87-MG; type: cell-based; conditions: Homo sapiens, U-87 MG; 10% FCS; 72 hours with compound; Alamar blue 6 h; read-out: U87-MG (cellular proliferation assay, Table 4) (converted)
Method: as §5, §6

A2780 = assay: Cellular proliferation assay (Alamar blue), A2780; type: cell-based; conditions: Homo sapiens, 10% FCS, 72 hours with compound, Alamar blue 24 h, read-out: A2780 (cellular proliferation assay, Table 4) (converted)
Method: as §5, §6

PLK4 (h), sequence (O00444 whole entry): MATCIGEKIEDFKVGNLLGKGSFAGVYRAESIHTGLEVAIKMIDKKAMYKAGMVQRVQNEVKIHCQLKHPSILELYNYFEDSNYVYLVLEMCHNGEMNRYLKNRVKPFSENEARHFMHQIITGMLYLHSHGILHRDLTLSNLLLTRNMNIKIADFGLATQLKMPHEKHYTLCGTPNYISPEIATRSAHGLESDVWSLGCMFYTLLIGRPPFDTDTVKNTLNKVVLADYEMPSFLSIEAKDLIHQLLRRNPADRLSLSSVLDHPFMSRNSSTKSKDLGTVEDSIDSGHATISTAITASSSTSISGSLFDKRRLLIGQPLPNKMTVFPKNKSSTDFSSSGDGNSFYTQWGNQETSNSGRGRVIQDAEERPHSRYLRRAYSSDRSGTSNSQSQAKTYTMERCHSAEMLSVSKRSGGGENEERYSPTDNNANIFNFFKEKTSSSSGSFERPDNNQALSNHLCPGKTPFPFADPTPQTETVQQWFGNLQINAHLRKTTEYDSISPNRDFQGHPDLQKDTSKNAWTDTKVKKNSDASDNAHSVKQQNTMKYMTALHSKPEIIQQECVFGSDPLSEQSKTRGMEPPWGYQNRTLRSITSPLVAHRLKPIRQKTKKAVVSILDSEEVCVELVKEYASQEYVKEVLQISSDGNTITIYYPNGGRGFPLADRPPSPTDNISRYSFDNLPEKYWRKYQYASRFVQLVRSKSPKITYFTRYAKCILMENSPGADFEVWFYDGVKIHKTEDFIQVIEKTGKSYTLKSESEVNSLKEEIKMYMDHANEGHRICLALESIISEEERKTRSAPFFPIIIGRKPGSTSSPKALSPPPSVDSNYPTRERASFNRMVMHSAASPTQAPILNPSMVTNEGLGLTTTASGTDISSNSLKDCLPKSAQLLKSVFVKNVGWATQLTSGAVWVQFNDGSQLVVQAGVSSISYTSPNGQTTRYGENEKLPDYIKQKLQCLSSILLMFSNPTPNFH

SMILES | IC50 (PLK4 (h)) [µM] | IC50 (AuroraB (h)) [µM] | IC50 (GSK3β (h)) [µM] | IC50 (CDK1/CyclinB (h)) [µM] | IC50 (CDK4/CyclinD1 (h)) [µM] | IC50 (PLK1 T210D (h)) [µM] | IC50 (PLK2 (h)) [µM] | IC50 (PLK3 (h)) [µM] | pIC50 (HCT-116) | IC50 (U87-MG) [µM] | IC50 (A2780) [µM]
COc1ccc2cc1CN1CCC[C@H]1C(=O)NCCCc1ccc(cn1)-c1ccnc(n1)N2 [Compound 2] | > 10 | > 10 | > 10 | > 10 | > 10 | > 10 | > 10 | > 10 | < 5.00 | > 10 | 
COc1ccc2cc1CN(C)CCNC(=O)CN1CCN(CC1)Cc1cc(Br)cc(c1)Nc1nccc-2n1 [Compound 50] | 9.33 | > 10 | 5.13 | > 10 | > 10 | > 10 | > 10 | > 10 | < 5.00 | > 10 | > 10
CN1CCCNC(=O)C2CCN(CC2)Cc2cc(Br)cc(c2)Nc2nccc(n2)-c2ccc(cc2)C1 [Compound 63] | 1.12 | > 10 | 1.91 | > 10 | > 10 | > 10 | > 10 | > 10 | < 5.00 | 5.89 | 2.69
COc1ccc2cc1CNCCNC(=O)C1CCN(CC1)Cc1cc(ccc1N1CCOCC1)Nc1nccc-2n1 [Compound 64] | 1.2 | 7.41 | > 10 | > 10 | > 10 | > 10 | > 10 | > 10 |  |  | 
COc1ccc2cc1CN(C)CCNC(=O)C1CCN(CC1)Cc1cc(Br)cc(c1)Nc1nccc-2n1 [Compound 79] | 5.25 | > 10 | 0.832 | > 10 | > 10 | > 10 | > 10 | > 10 | < 5.00 | 7.59 | 4.79
